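Dose response: 5 concentrations. Exposure: 48 h. Format: 96-well plates. Endpoint: linear interpolation; highest concentration if not reached. At the GI50, growth is halved. TGI: total growth inhibition.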
Key:
Assay in all cases: NCI-60 cell line screen, 48 h
786-0 renal = test system: 786-0 renal
A498 renal = test system: A498 renal
A549 NSCLC = test system: A549 NSCLC
ACHN renal = test system: ACHN renal
BT-549 breast = test system: BT-549 breast
CAKI-1 renal = test system: CAKI-1 renal
CCRF-CEM leukemia = test system: CCRF-CEM leukemia
COLO 205 colon = test system: COLO 205 colon
DU-145 prostate = test system: DU-145 prostate
EKVX NSCLC = test system: EKVX NSCLC
HCC-2998 colon = test system: HCC-2998 colon
HCT-116 colon = test system: HCT-116 colon
HCT-15 colon = test system: HCT-15 colon
HL-60(TB) leukemia = test system: HL-60(TB) leukemia
HOP-62 NSCLC = test system: HOP-62 NSCLC
HOP-92 NSCLC = test system: HOP-92 NSCLC
HS 578T breast = test system: HS 578T breast
HT29 colon = test system: HT29 colon
IGROV1 ovarian = test system: IGROV1 ovarian
K-562 leukemia = test system: K-562 leukemia
KM12 colon = test system: KM12 colon
M14 melanoma = test system: M14 melanoma
MALME-3M melanoma = test system: MALME-3M melanoma
MCF7 breast = test system: MCF7 breast
MDA-MB-231 breast = test system: MDA-MB-231 breast
MDA-MB-435 = test system: MDA-MB-435
MOLT-4 leukemia = test system: MOLT-4 leukemia
NCI-H226 lung = test system: NCI-H226 lung
NCI-H23 lung = test system: NCI-H23 lung
NCI-H460 lung = test system: NCI-H460 lung
NCI/ADR-RES ovarian = test system: NCI/ADR-RES ovarian
OVCAR-3 ovarian = test system: OVCAR-3 ovarian
OVCAR-4 ovarian = test system: OVCAR-4 ovarian
OVCAR-5 ovarian = test system: OVCAR-5 ovarian
OVCAR-8 ovarian = test system: OVCAR-8 ovarian
PC-3 prostate = test system: PC-3 prostate
RPMI-8226 leukemia = test system: RPMI-8226 leukemia
RXF 393 renal = test system: RXF 393 renal
SF-268 CNS = test system: SF-268 CNS
SF-295 CNS = test system: SF-295 CNS
SF-539 CNS = test system: SF-539 CNS
SK-MEL-2 melanoma = test system: SK-MEL-2 melanoma
SK-MEL-28 melanoma = test system: SK-MEL-28 melanoma
SK-MEL-5 melanoma = test system: SK-MEL-5 melanoma
SK-OV-3 ovarian = test system: SK-OV-3 ovarian
SN12C renal = test system: SN12C renal
SNB-19 CNS = test system: SNB-19 CNS
SNB-75 CNS = test system: SNB-75 CNS
SR leukemia = test system: SR leukemia
SW-620 colon = test system: SW-620 colon
T-47D breast = test system: T-47D breast
TK-10 renal = test system: TK-10 renal
U251 CNS = test system: U251 CNS
UACC-257 melanoma = test system: UACC-257 melanoma
UACC-62 melanoma = test system: UACC-62 melanoma
UO-31 renal = test system: UO-31 renal

Question: Which results are given for `C#C[C@]1(O)CC[C@H]2[C@@H]3CC=C4c5sc(Nc6cc(C)cc(C)c6)nc5CC[C@]4(C)[C@H]3CC[C@@]21C`?
Answer: GI50 (786-0 renal): 0.429 µM; TGI (786-0 renal): 2.28 µM; GI50 (A498 renal): 0.791 µM; TGI (A498 renal): 2.98 µM; GI50 (A549 NSCLC): 4.08 µM; TGI (A549 NSCLC): 28.5 µM; GI50 (ACHN renal): 3.72 µM; TGI (ACHN renal): 20.5 µM; GI50 (BT-549 breast): 0.556 µM; TGI (BT-549 breast): 5.82 µM; GI50 (CAKI-1 renal): 2.69 µM; TGI (CAKI-1 renal): 15 µM; GI50 (CCRF-CEM leukemia): 1.7 µM; TGI (CCRF-CEM leukemia): 8.43 µM; GI50 (COLO 205 colon): 2.42 µM; TGI (COLO 205 colon): 5.9 µM; GI50 (DU-145 prostate): 4.18 µM; TGI (DU-145 prostate): 21.8 µM; GI50 (EKVX NSCLC): 3.12 µM; TGI (EKVX NSCLC): 31.3 µM; GI50 (HCC-2998 colon): 5.47 µM; TGI (HCC-2998 colon): 23 µM; GI50 (HCT-116 colon): 1.98 µM; TGI (HCT-116 colon): 10.1 µM; GI50 (HCT-15 colon): 1.88 µM; TGI (HCT-15 colon): 5.58 µM; GI50 (HL-60(TB) leukemia): 1.29 µM; TGI (HL-60(TB) leukemia): 5.55 µM; GI50 (HOP-62 NSCLC): 2.55 µM; TGI (HOP-62 NSCLC): 20.1 µM; GI50 (HOP-92 NSCLC): 3.17 µM; TGI (HOP-92 NSCLC): 13.6 µM; GI50 (HS 578T breast): 0.526 µM; TGI (HS 578T breast): 5.89 µM; GI50 (HT29 colon): 1.65 µM; TGI (HT29 colon): 4.32 µM; GI50 (IGROV1 ovarian): 4.85 µM; TGI (IGROV1 ovarian): 60.6 µM; GI50 (K-562 leukemia): 1.58 µM; TGI (K-562 leukemia): 4.33 µM; GI50 (KM12 colon): 2.6 µM; TGI (KM12 colon): 8.05 µM; GI50 (M14 melanoma): 1.58 µM; TGI (M14 melanoma): 6.87 µM; GI50 (MALME-3M melanoma): 1.87 µM; TGI (MALME-3M melanoma): 5.6 µM; GI50 (MCF7 breast): 1.61 µM; TGI (MCF7 breast): 6.22 µM; GI50 (MDA-MB-231 breast): 2.96 µM; TGI (MDA-MB-231 breast): 15.1 µM; GI50 (MDA-MB-435): 2.83 µM; TGI (MDA-MB-435): 12.4 µM; GI50 (MOLT-4 leukemia): 0.555 µM; TGI (MOLT-4 leukemia): 5.83 µM; GI50 (NCI-H226 lung): 2.29 µM; TGI (NCI-H226 lung): 7.99 µM; GI50 (NCI-H23 lung): 2.87 µM; TGI (NCI-H23 lung): 17 µM; GI50 (NCI-H460 lung): 2.72 µM; TGI (NCI-H460 lung): 13 µM; GI50 (NCI/ADR-RES ovarian): 4.86 µM; TGI (NCI/ADR-RES ovarian): 45.5 µM; GI50 (OVCAR-3 ovarian): 3.59 µM; TGI (OVCAR-3 ovarian): 16.9 µM; GI50 (OVCAR-4 ovarian): 4.63 µM; TGI (OVCAR-4 ovarian): > 100 µM; GI50 (OVCAR-5 ovarian): 3.69 µM; TGI (OVCAR-5 ovarian): 15.8 µM; GI50 (OVCAR-8 ovarian): 7.08 µM; TGI (OVCAR-8 ovarian): > 100 µM; GI50 (PC-3 prostate): 1.53 µM; TGI (PC-3 prostate): 11.9 µM; GI50 (RPMI-8226 leukemia): 0.272 µM; TGI (RPMI-8226 leukemia): 0.823 µM; GI50 (RXF 393 renal): 0.142 µM; TGI (RXF 393 renal): 0.428 µM; GI50 (SF-268 CNS): 2.54 µM; TGI (SF-268 CNS): 20.2 µM; GI50 (SF-295 CNS): 0.297 µM; TGI (SF-295 CNS): 0.966 µM; GI50 (SF-539 CNS): 0.392 µM; TGI (SF-539 CNS): 1.71 µM; GI50 (SK-MEL-2 melanoma): 1.46 µM; TGI (SK-MEL-2 melanoma): 10.3 µM; GI50 (SK-MEL-28 melanoma): 1.07 µM; TGI (SK-MEL-28 melanoma): 2.95 µM; GI50 (SK-MEL-5 melanoma): 1.65 µM; TGI (SK-MEL-5 melanoma): 3.15 µM; GI50 (SK-OV-3 ovarian): 2.23 µM; TGI (SK-OV-3 ovarian): 7.94 µM; GI50 (SN12C renal): 8.38 µM; TGI (SN12C renal): 30.5 µM; GI50 (SNB-19 CNS): 2 µM; TGI (SNB-19 CNS): 11.6 µM; GI50 (SNB-75 CNS): 0.547 µM; TGI (SNB-75 CNS): 7.91 µM; GI50 (SR leukemia): 1.17 µM; TGI (SR leukemia): 5.88 µM; GI50 (SW-620 colon): 2.12 µM; TGI (SW-620 colon): 4.89 µM; GI50 (T-47D breast): 3.4 µM; TGI (T-47D breast): 85.8 µM; GI50 (TK-10 renal): 9.87 µM; TGI (TK-10 renal): 36.5 µM; GI50 (U251 CNS): 1.09 µM; TGI (U251 CNS): 18.4 µM; GI50 (UACC-257 melanoma): 3.07 µM; TGI (UACC-257 melanoma): 21.7 µM; GI50 (UACC-62 melanoma): 1.69 µM; TGI (UACC-62 melanoma): 4.1 µM; GI50 (UO-31 renal): 2.72 µM; TGI (UO-31 renal): 9.7 µM

Source: PubChem BioAssay (NCI)
